We go through 16 compounds from PMC7583898, “Novel Harmicines with Improved Potency against Plasmodium” (Molecules, 2020).

Where two headings read alike, the source gives them in different places.

For test [1], the system named is P. falciparum erythrocytic stage, Pf3D7 (chloroquine-sensitive) strain. Kind of test: In vitro drug sensitivity assay against erythrocytic stage of P. falciparum, Pf3D7 strain (HRP2-ELISA). It is filed as cell-based. As to conditions: Plasmodium falciparum, mean ± SD. The protocol:
(§1) The antiplasmodial activity of harmicines 5 and 6 was evaluated against two laboratory P. falciparum strains (3D7 – CQ-sensitive, and Dd2 – CQ-resistant), as previously described, using the histidine-rich protein 2 (HRP2) assay. […] After three days of incubation at 37 °C, 5% CO2 and 5% oxygen, plates were frozen until analyzed by HRP2-ELISA. All compounds were evaluated in duplicate in at least two independent experiments. The IC50 was determined by nonlinear regression analysis of log concentration–response curves using the drc package v0.9.0 of R v2.6.1 [22].
For orientation: An ELISA detects its analyte on a solid surface through an enzyme-linked reagent.

For test [2], the system named is P. falciparum erythrocytic stage, PfDd2 (chloroquine-resistant) strain. As to the kind of experiment: In vitro drug sensitivity assay against erythrocytic stage of P. falciparum, PfDd2 strain (HRP2-ELISA). As to conditions: Plasmodium falciparum, mean ± SD. The class given is cell-based. The protocol:
as §1

Test [3] deals with human liver hepatocellular carcinoma cell line (HepG2). As to the kind of experiment: In vitro cytotoxicity assay (neutral red). It is filed as cell-based. Particulars: for IC50: Homo sapiens, HepG2, 24 h, neutral red, one day incubation, mean ± SD; for SI, selectivity index: ratio between IC50 (HepG2) and IC50 (Pf3D7). The protocol:
A cytotoxicity assay was performed using the neutral red assay, as described previously, against human liver hepatocellular carcinoma cell line (HepG2) (Table 1). For the safety assessment, a selectivity index (SI) for each compound was calculated as the fractional ratio between the IC50 values for HepG2 and P. falciparum Pf3D7 strain (Table 2). In general, N-harmicines 5 are less cytotoxic than O-harmicines 6, which is in agreement with the results obtained for triazole-type harmicines. Furthermore, all N-harmicines, but only two O-harmicines, 6d and 6f, have more favorable SIs than the parent compound harmine (SI = 30). […] Compound 5b, with a m-fluorine substituent in the cinnamic scaffold, exerted the highest selectivity (SI = 773), followed by 5a, an amide with unsubstituted cinnamic acid (SI = 715).
Cytotoxicity against a human cell line (HepG2) was evaluated using the neutral red assay. In brief, human cells were seeded to a 96 well plate in complete culture medium, before on the following day a serial dilution of the respective compound was added. After one day of incubation, cytotoxicity was evaluated by the addition of Neutral Red, subsequent lysis of cells and the measurement of absorbance in a plate reader. The IC50 was determined as for the in vitro drug assay against P. falciparum. To assess the safety of a compound, SI was calculated as the fractional ratio between the IC50 values for HepG2 and the P. falciparum 3D7 strain.

For test [4], the system named is P. falciparum erythrocytic stage, Pf3D7 (chloroquine-sensitive) strain. More on the design: method as in PMID 31812035. As to conditions: ref [15]; cited from earlier work.
The subject of test [5] is P. falciparum erythrocytic stage, PfDd2 (chloroquine-resistant) strain. Particulars: ref [15]; cited from earlier work.
For test [6], the system named is human liver hepatocellular carcinoma cell line (HepG2). Also on record: method as in PMID 31812035. As to conditions: ref [15]; cited from earlier work.

Regarding `COc1ccc2c3ccnc(C)c3n(CCNC(=O)C=Cc3ccccc3)c2c1` [5a, N-(2-(7-methoxy-1-methyl-9H-pyrido[3,4-b]indol-9-yl)ethyl)cinnamamide], the IC50 (commonly the concentration that gives 50% inhibition) was determined as 0.49 ± 0.25 µM in test [1], 1.11 ± 0.15 µM in test [2] and 350 ± 13 µM in test [3]. The “SI, selectivity index” value in test [3] was 715.

Turning to `COc1ccc2c3ccnc(C)c3n(CCNC(=O)/C=C/c3cccc(F)c3)c2c1` [5b, (E)-3-(3-fluorophenyl)-N-(2-(7-methoxy-1-methyl-9H-pyrido[3,4-b]indol-9-yl)ethyl)acrylamide], the IC50 is 0.07 ± 0.03 µM in test [1], 0.78 ± 0.32 µM in test [2] and 54.1 ± 13.4 µM in test [3]. The “SI, selectivity index” value in test [3] came to 773.

With `COc1ccc2c3ccnc(C)c3n(CCNC(=O)/C=C/c3cccc(Br)c3)c2c1` [5c, (E)-3-(3-bromophenyl)-N-(2-(7-methoxy-1-methyl-9H-pyrido[3,4-b]indol-9-yl)ethyl)acrylamide], the IC50 in test [1] worked out at 0.07 ± 0.03 µM; in test [2], 0.41 ± 0.01 µM; in test [3], 2.88 ± 0.42 µM. Also, in test [3], the “SI, selectivity index” value came out at 41.

Consider `COc1ccc2c3ccnc(C)c3n(CCNC(=O)/C=C/c3ccc(F)cc3)c2c1` [5d, (E)-3-(4-fluorophenyl)-N-(2-(7-methoxy-1-methyl-9H-pyrido[3,4-b]indol-9-yl)ethyl)acrylamide], for which the values for the IC50 in test [1], in test [2] and in test [3] were 0.09 ± 0.06 µM, 0.33 ± 0.11 µM and 21 ± 0.88 µM, respectively. In test [3], the “SI, selectivity index” value was 233.

Take `COc1ccc2c3ccnc(C)c3n(CCNC(=O)/C=C/c3ccc(Cl)cc3)c2c1` [5e, (E)-3-(4-chlorophenyl)-N-(2-(7-methoxy-1-methyl-9H-pyrido[3,4-b]indol-9-yl)ethyl)acrylamide]: the IC50 in test [1] stood at 0.04 ± 0.02 µM; in test [2], 0.17 ± 0.01 µM; in test [3], 2.91 ± 1.75 µM. Moreover, the “SI, selectivity index” value in test [3] came out at 73.

As to `COc1ccc(/C=C/C(=O)NCCn2c3cc(OC)ccc3c3ccnc(C)c32)cc1` [5f, (E)-N-(2-(7-methoxy-1-methyl-9H-pyrido[3,4-b]indol-9-yl)ethyl)-3-(4-methoxyphenyl)acrylamide], the results for the IC50 in test [1], in test [2] and in test [3] were 0.26 ± 0.001 µM, 0.49 ± 0.24 µM and 74.7 ± 7.61 µM, respectively. The “SI, selectivity index” value in test [3] was 287.

In the case of `Cc1nccc2c1[nH]c1cc(OCCNC(=O)C=Cc3ccccc3)ccc12` [6a, N-(2-((1-methyl-9H-pyrido[3,4-b]indol-7-yl)oxy)ethyl)cinnamamide], the concentration for half-maximal inhibition (IC50) in test [1] turned out to be 0.98 ± 0.12 µM; in test [2], 4.7 ± 2.65 µM; in test [3], 12.7 ± 0.66 µM. Further, the “SI, selectivity index” value in test [3] turned out to be 13.

For `Cc1nccc2c1[nH]c1cc(OCCNC(=O)/C=C/c3cccc(F)c3)ccc12` [6b, (E)-3-(3-fluorophenyl)-N-(2-((1-methyl-9H-pyrido[3,4-b]indol-7-yl)oxy)ethyl)acrylamide], the IC50 amounted to 2.75 ± 1.6 µM in test [1], 5.01 ± 0.83 µM in test [2] and 12.9 ± 3.31 µM in test [3]. Further, the “SI, selectivity index” value in test [3] was found to be 5.

As to `Cc1nccc2c1[nH]c1cc(OCCNC(=O)/C=C/c3cccc(Br)c3)ccc12` [6c, (E)-3-(3-bromophenyl)-N-(2-((1-methyl-9H-pyrido[3,4-b]indol-7-yl)oxy)ethyl)acrylamide], the IC50 in test [1] is 0.37 ± 0.22 µM; in test [2], 0.48 ± 0.28 µM; in test [3], 6.11 ± 2.07 µM. Besides, in test [3], the “SI, selectivity index” value is 16.

Take `Cc1nccc2c1[nH]c1cc(OCCNC(=O)/C=C/c3ccc(F)cc3)ccc12` [6d, (E)-3-(4-fluorophenyl)-N-(2-((1-methyl-9H-pyrido[3,4-b]indol-7-yl)oxy)ethyl)acrylamide]: the IC50 was 0.15 ± 0.06 µM in test [1], 0.69 ± 0.18 µM in test [2] and 7.63 ± 2.47 µM in test [3]. Further, the “SI, selectivity index” value in test [3] is 51.

Consider `Cc1nccc2c1[nH]c1cc(OCCNC(=O)/C=C/c3ccc(Cl)cc3)ccc12` [6e, (E)-3-(4-chlorophenyl)-N-(2-((1-methyl-9H-pyrido[3,4-b]indol-7-yl)oxy)ethyl)acrylamide], for which the results for the IC50 in test [1], in test [2] and in test [3] were 0.32 ± 0.03 µM, 0.4 ± 0.24 µM and 7.72 ± 3.04 µM, respectively. The “SI, selectivity index” value in test [3] was determined as 24.

On to `COc1ccc(/C=C/C(=O)NCCOc2ccc3c(c2)[nH]c2c(C)nccc23)cc1` [6f, (E)-3-(4-methoxyphenyl)-N-(2-((1-methyl-9H-pyrido[3,4-b]indol-7-yl)oxy)ethyl)acrylamide], for which the results for the IC50 in test [1], in test [2] and in test [3] were 0.21 ± 0.14 µM, 1.09 ± 0.49 µM and 10.5 ± 0.43 µM, respectively. In test [3], the “SI, selectivity index” value was 50.

For `Cc1nccc2c1[nH]c1cc(OCCNC(=O)/C=C/c3ccccc3F)ccc12` [6g, (E)-3-(2-fluorophenyl)-N-(2-((1-methyl-9H-pyrido[3,4-b]indol-7-yl)oxy)ethyl)acrylamide], the IC50 stood at 0.93 ± 0.28 µM in test [1], 3.92 ± 1.35 µM in test [2] and 16.2 ± 1.86 µM in test [3]. The “SI, selectivity index” value in test [3] turned out to be 17.

On to `C/C(=C\c1ccccc1)C(=O)NCCOc1ccc2c(c1)[nH]c1c(C)nccc12` [6h, (E)-2-methyl-N-(2-((1-methyl-9H-pyrido[3,4-b]indol-7-yl)oxy)ethyl)-3-phenylacrylamide], for which the IC50 came to 6.78 ± 0.72 µM in test [1], 19.5 ± 11.8 µM in test [2] and 61.3 ± 2.75 µM in test [3]. In addition, the “SI, selectivity index” value in test [3] is 9.

As to `CCN(CC)CCCC(C)Nc1ccnc2cc(Cl)ccc12` (stereo not drawn) [CQ, chloroquine], the IC50 was 0.003 ± 0.002 µM in test [4] and 0.2 ± 0.1 µM in test [5].

Turning to `COc1ccc2c(c1)[nH]c1c(C)nccc12` [Harmine, harmine], the IC50 was greater than 27.7 µM in test [5] and greater than 250 µM in test [6].
